Tests used:
Settings in all cases: exposure time 48 h
[1] = test system: Caenorhabditis elegans N2; test: AC50 for larval growth inhibition (Hill fit); higher = less potent
How it was run: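 Worms were synchronised C. elegans N2 L1 larvae, 50 per well of a 96-well plate, kept 48 h at 20°C in K-medium with killed OP50, 1% DMSO and 0.5–200 µM chemical. Size was taken as COPAS Biosort extinction, log-transformed and averaged per well, using only wells with at least 10 worms. AC50 was estimated by a constrained Hill fit with weighted genetic-algorithm regression; values outside the range are censored.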

[2] = test system: Caenorhabditis elegans N2; test: lowest effective concentration for larval growth inhibition (size below effect threshold); higher = less potent
How it was run: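 L1 larvae of C. elegans N2 (50 per 96-well) were grown in K-medium with killed bacteria and 1% DMSO, with the chemical at 0.5, 1, 5, 10, 50, 100 or 200 µM, for 48 h at 20°C. Per-worm extinction from the Biosort stood for size and was log-transformed into well means. For each chemical, the lowest effective concentration is the first dose where plate-adjusted mean size falls under the threshold and stays under it at the higher doses, using a threshold of 5.665.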

[3] = test system: Caenorhabditis elegans N2; test: mean nematode size ln(EXT) after 48 h, plate-adjusted (DMSO control set to 6) (ln(EXT), control-adjusted); higher = larger nematodes / less growth inhibition
How it was run: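 Each treatment used 4–6 wells of 50 synchronised C. elegans N2 L1 larvae, kept for 48 h at 20°C in K-medium with killed OP50, 1% DMSO and 0.5–200 µM chemical. Debris was excluded by a growth model after the Biosort measured per-worm extinction. Mean size per well came from natural-logged values and was plate-adjusted. That adjustment subtracted the vehicle control mean and then added 6.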

Structure (SMILES) | AC50 for larval growth inhibition [1] [µM] | lowest effective concentration [2] [µM] | mean nematode size ln(EXT) (ln) ([3]; 0.5 µM) | mean nematode size ln(EXT) (ln) ([3]; 1 µM) | mean nematode size ln(EXT) (ln) ([3]; 5 µM) | mean nematode size ln(EXT) (ln) ([3]; 10 µM) | mean nematode size ln(EXT) (ln) ([3]; 50 µM) | mean nematode size ln(EXT) (ln) ([3]; 100 µM) | mean nematode size ln(EXT) (ln) ([3]; 200 µM)
CCOP(=S)(OCC)SCCSCC [Disulfoton] | > 200 | 200 | 6.1 | 6.13 | 5.9 | 6.03 | 5.93 | 5.72 | 5.04
C=CCC1=C(C)C(OC(=O)C2C(C=C(C)C)C2(C)C)CC1=O (configuration not stated) [Allethrin] | > 200 | 50 | 5.9 | 5.91 | 5.87 | 5.86 | 5.64 | 5.59 | 5.23
Cn1c(=O)c2nc[nH]c2n(C)c1=O [Theophylline] | > 200 | 200 | 5.97 | 5.97 | 5.98 | 6.02 | 5.84 | 5.9 | 5.59
NC(=O)Cn1c(=O)cc(CCN2CCN(c3nccc4sccc34)CC2)c2ccc(F)cc21 [Trelanserin] | > 200 | 200 | 5.9 | 5.78 | 5.75 | 5.81 | 5.71 | 5.7 | 5.54
CCCCCCCCOC(=O)c1ccc(C(=O)OCCCCCCCC)c(C(=O)OCCCCCCCC)c1 [Tri (n-octyl) Trimellitate] | > 200 | 200 | 5.86 | 5.93 | 5.95 | 5.85 | 5.91 | 5.92 | 5.64
Clc1nc(Cl)c(Cl)c(Cl)c1Cl [Pentachloropyridine] | > 200 | 50 | 5.87 | 5.81 | 5.83 | 5.82 | 5.6 | 5.48 | 5.59
CC1=C(/C=C/C(C)=C/C=C/C(C)=C/C(=O)O)C(C)(C)CCC1 [Retinoic acid] | 16.6 | 10 | 5.96 | 5.78 | 5.8 | 5.58 | 4.47 | 4.33 | 4.41
CCCCCCCCCCO [1-Decanol (Decanol)] | 143 | 200 | 5.95 | 5.91 | 5.83 | 5.85 | 5.79 | 5.69 | 3.42
CC1(C)C(C=C(Cl)Cl)C1C(=O)OCc1cccc(Oc2ccccc2)c1 (configuration not stated) [Permethrin] | 11.2 | 10 | 5.91 | 5.9 | 5.67 | 5.56 | 5.41 | 4.98 | 5.24
CCCCCCC(=O)O [Heptanoic acid] | > 200 | 200 | 5.88 | 5.97 | 5.87 | 6.04 | 5.85 | 5.87 | 5.43
CCCCCCCCCCCCO [1-Dodecanol] | 20.3 | 10 | 5.89 | 5.85 | 5.73 | 5.63 | 3.72 | 3.69 | 3.49
NC(=O)N/N=C/c1ccc([N+](=O)[O-])o1 [5-Nitro-2-furaldehyde semicarbazone] | > 200 | 50 | 5.78 | 5.76 | 5.75 | 5.76 | 5.65 | 5.61 | 5.24
c1cc2ccc3cccc4ccc(c1)c2c34 [Pyrene] | 4.29 | 1 | 5.71 | 5.58 | 4.64 | 4.52 | 4.28 | 4.05 | 3.59
CCCCSP(=O)(SCCCC)SCCCC [Tribufos] | 5.32 | 5 | 5.81 | 5.73 | 5.58 | 3.53 | 3.25 | 3.33 | 4.2
O=C(NC(=O)c1cc(F)c(F)cc1Cl)Nc1cc(F)ccc1N1CCC(C(=O)O)CC1 | 91.3 | 200 | 5.94 | 5.9 | 5.94 | 5.9 | 5.93 | 5.73 | 5.57
CSC(=O)c1cccc2nnsc12 [Acibenzolar-S-Methyl] | > 200 | 10 | 5.65 | 5.73 | 5.67 | 5.6 | 5.37 | 5.36 | 5.36
S=C([S-])NCCNC(=S)[S-].[Mn+2] [Maneb] | > 200 | 200 | 5.91 | 5.98 | 6.05 | 5.98 | 5.9 | 5.83 | 5.52
CS(=O)(=O)c1ccc(C(=O)C2C(=O)CCCC2=O)c([N+](=O)[O-])c1 [Mesotrione] | 107 | 200 | 5.87 | 5.92 | 5.92 | 6.03 | 5.9 | 5.68 | 5.41
CCNc1nc(Cl)nc(NC(C)(C)C)n1 [Terbuthylazin] | > 200 | 50 | 6 | 5.99 | 5.96 | 5.95 | 5.65 | 5.58 | 5.22
CCCOC/C(=N\c1ccc(Cl)cc1C(F)(F)F)n1ccnc1 [Triflumizole] | 21.3 | 100 | 5.97 | 6.09 | 4.54 | 6.04 | 5.95 | 4.88 | 3.47
CCC(C)c1ccc(O)cc1 (configuration not stated) [4-(Butan-2-yl)phenol] | 142 | 200 | 6.03 | 6.09 | 6.07 | 6.08 | 6.05 | 6.02 | 5.52
O=[N+]([O-])c1ccc(Cl)c(Cl)c1 [1,2-Dichloro-4-nitrobenzene] | 111 | 100 | 5.95 | 5.94 | 5.93 | 5.99 | 5.79 | 5.66 | 5.54
Cc1cc(N=Nc2ccccc2C)ccc1N [Fast Garnet GBC base] | 14.9 | 5 | 5.83 | 5.71 | 5.55 | 5.5 | 3.45 | 3.57 | 3.77
CCOC(=O)C(O)(c1ccc(Cl)cc1)c1ccc(Cl)cc1 [Chlorobenzilate] | 39.4 | 10 | 6.05 | 5.97 | 5.87 | 5.64 | 4.21 | 4.08 | 3.11

Structure (SMILES) | AC50 for larval growth inhibition [1] [µM] | lowest effective concentration [2] [µM] | mean nematode size ln(EXT) (ln) ([3]; 0.5 µM) | mean nematode size ln(EXT) (ln) ([3]; 1 µM) | mean nematode size ln(EXT) (ln) ([3]; 5 µM) | mean nematode size ln(EXT) (ln) ([3]; 10 µM) | mean nematode size ln(EXT) (ln) ([3]; 50 µM) | mean nematode size ln(EXT) (ln) ([3]; 100 µM) | mean nematode size ln(EXT) (ln) ([3]; 200 µM)
CSc1nc(NC(C)C)nc(NC(C)C)n1 [Prometryn] | > 200 | 200 | 5.83 | 5.76 | 5.87 | 6 | 5.79 | 5.86 | 5.37
CCc1cc(SCc2sc(-c3ccc(C(F)(F)F)cc3)nc2CN2CCN(c3ccc(OC)cc3)CC2)ccc1OCC(=O)O | 9.23 | 5 | 6 | 5.67 | 5.57 | 4.69 | 4.47 | 4.29 | 3.99
CN(C)C(=S)SSC(=S)N(C)C [Thiram] | 48.9 | 50 | 6 | 6.02 | 6.06 | 6.13 | 5.55 | 5.36 | 5.13
CNC(=O)Oc1cccc2c1OC(C)(C)C2 [Carbofuran] | 198 | 100 | 5.92 | 5.92 | 5.84 | 5.89 | 5.75 | 5.39 | 4.54
CC(C)(C)CC(C)(C)c1ccc(O)cc1 [4-(1,1,3,3-Tetramethylbutyl)phenol] | 101 | 50 | 6.09 | 6.01 | 6.04 | 5.97 | 5.53 | 4.62 | 3.54
COP(=S)(OC)Oc1ccc([N+](=O)[O-])c(C)c1 [Fenitrothion] | 37 | 5 | 5.97 | 5.72 | 5.6 | 5.46 | 4.49 | 3.96 | 4.09
O=c1n(CC2CO2)c(=O)n(CC2CO2)c(=O)n1CC1CO1 (configuration not stated) [Triglycidyl isocyanurate] | > 200 | 100 | 5.88 | 5.83 | 5.84 | 5.89 | 5.86 | 5.42 | 5.65
CCCCCCCC(=O)OC [Methyl octanoate] | > 200 | 200 | 5.88 | 5.84 | 5.85 | 5.9 | 5.74 | 5.88 | 5.52
O=C(NC(=O)c1c(F)cccc1F)Nc1ccc(OC(F)(F)C(F)OC(F)(F)F)c(Cl)c1 (configuration not stated) [Novaluron] | > 200 | 50 | 5.83 | 5.74 | 5.85 | 5.88 | 5.61 | 5.12 | 4.56
C=CC1(C)OC(=O)N(c2cc(Cl)cc(Cl)c2)C1=O (configuration not stated) [Vinclozolin] | 1.18 | 1 | 5.76 | 5.01 | 3.56 | 3.46 | 3.32 | 3.11 | 3.61
CCOc1cccc(-n2cc(C(=O)N3CCN(c4cc(C(=O)O)c5ccccc5c4)CC3)nc2-c2ccc(C)cc2)c1 | 57.9 | 50 | 5.89 | 5.86 | 5.82 | 5.84 | 4.84 | 4.42 | 3.94
OCC(O)CO [Glycerol] | > 200 | 200 | 5.83 | 5.87 | 5.84 | 5.75 | 5.87 | 5.87 | 5.66
Cc1nccn1-c1ccc(Sc2cccc(C3(C(N)=O)CCOCC3)c2)cc1 | > 200 | 200 | 5.74 | 6.03 | 5.84 | 5.88 | 5.86 | 5.81 | 5.48
CC(C1CC1)C(O)(Cn1cncn1)c1ccc(Cl)cc1 (configuration not stated) [Cyproconazole] | > 200 | 200 | 5.92 | 5.92 | 5.85 | 5.99 | 6.17 | 6.33 | 5.59
C1CCC(SSC2CCCCC2)CC1 [Dicyclohexyl disulfide] | > 200 | 50 | 5.76 | 5.82 | 5.78 | 5.74 | 5.65 | 5.62 | 5.44
CCC(CC)Nc1c([N+](=O)[O-])cc(C)c(C)c1[N+](=O)[O-] [Pendimethalin] | > 200 | 200 | 5.89 | 5.93 | 5.86 | 5.77 | 5.86 | 6.13 | 5.44
NCc1cccc(C2CCN(C(=O)c3ccc(C#Cc4ccccc4F)o3)CC2)c1 | 31.6 | 5 | 5.96 | 5.71 | 5.61 | 5.42 | 4.45 | 3.28 | 
Oc1ccc2c(c1)-c1ccccc1C2 [3-Hydroxyfluorene] | 97.8 | 50 | 5.81 | 5.96 | 5.84 | 5.97 | 5.6 | 4.66 | 3.77
C=C(C)C(=O)[O][Sn]([CH2]CCC)([CH2]CCC)[CH2]CCC [Stannane, tributyl(2-methyl-1-oxo-2-propenyl)oxy-] | 0.511 | ≤ 0.5 | 4.73 | 4.66 | 3.93 | 3.57 | 3.8 | 3.85 | 3.56
CCOP(=S)(OCC)SCSCC [Phorate] | > 200 | 100 | 5.9 | 5.87 | 5.8 | 5.76 | 5.68 | 5.55 | 5.21
Cc1cc(SC2=C(O)C[C@@](CCc3ccc(N)cc3)(C(C)C)OC2=O)c(C(C)(C)C)cc1CO | 186 | 200 | 5.92 | 6.15 | 6.21 | 6.22 | 6.19 | 6.07 | 5.64
O=C(Nc1ccccc1)Nc1cnns1 [Thidiazuron] | > 200 | 200 | 6.05 | 6.18 | 6.1 | 5.93 | 6.01 | 5.89 | 4.8
CC[C@H](NC(=O)c1cc(F)ccc1NS(=O)(=O)c1cccc2cccnc12)c1ccccc1 | 57.4 | 10 | 5.88 | 5.83 | 5.85 | 5.52 | 4.56 | 4.28 | 3.77

Reference: the supplement of paper PMC4858399
